Test results from US20070184549A1, “Method of inducing fenestrae” (priority 2004, published 2007).

Columns and labels:
Py4.1 cells = assay: Fenestrae induction in Py4.1 cells, wholemount TEM; assay type: cell-based, mouse; details: for fenestrae formation: 2.5 μM Latrunculin A, 3 hours, wholemount TEM
Protocol: (§1) FIG. 9 is a graph regarding fenestrae induction in different endothelial cell types. The potential of different endothelial cell lines to form fenestrae under the optimal parameters of induction was assessed using wholemount TEM. bEND5, Py4.1, SVEC, and HUVEC cells were treated for 3 hours with vehicle (V) or 2.5 μM Latrunculin A (Lat), and the number of fenestrae was estimated as a fraction of the plasma membrane area occupied by sieve plates. Data points represent the average of two experiments, with 36 images captured per sample in each experiment. Error bars represent standard deviation between the two experiments.
A panel of endothelial cell subtypes was assessed for their fenestrae-forming potentials. Three mouse endothelial lines (bEND5, Py4.1, SVEC) and one human primary endothelial line (HUVEC) were cultured on gelatin-coated grids, treated with latrunculin A for 3 hours, and examined by wholemount TEM (FIG. 8). bEND5 and Py4.1 cells are brain endothelomas and ear/tail endotheliomas respectively, both originating from hemangiomas of Polyoma virus—infected mice. SVECs are lymph node endothelial cells infected with SV40 virus. HUVECs were chosen because of their widespread use and primary cell nature. […] The response of bEND5 and Py4.1 cells differed both in magnitude and in relation to the respective untreated controls. bEND5 cells harbored greater numbers of fenestrae overall, but contained some background fenestrae in the un-induced state.

actin filaments = details: barbed, fast growing end of actin filaments; cited from earlier work
bEND5 cells = assay: Fenestrae induction in bEND5 cells, quantified by stereology on SEM or wholemount TEM images; details: for induction of fenestrae compared to the untreated control: cytochalasin B (10 nM) or Latrunculin A (2.5 nM) alone; for induction of fenestrae compared to the untreated control / maximum number of fenestrae: SEM; for maximum number of fenestrae: cytochalasin B at 2 hours, latrunculin A after 3 hours; for time of treatment at maximum number of fenestrae: single agent, SEM time-course; for fenestrae formation: 2.5 μM Latrunculin A, 3 hours, wholemount TEM
Text: Images were printed, and sieve plates were marked (solid line). A grid (20 mm×20 mm) was overlaid over each image and the number of grid points falling within the areas delineated or on any cellular structure were counted. Fenestrae abundance was estimated based on the following calculation: Plasma membrane coverage (or fraction of the plasma membrane occupied by sieve plates)=grid points falling on sieve plates/grid points falling on any cell area. To express abundance in terms of the number of fenestrae per area of plasma membrane, the density of fenestrae within sieve plates was calculated and multiplied by the frequency of sieve plates as follows: number of fenestrae per square μm=density of fenestrae×plasma membrane coverage.
A quantitative assessment of fenestrae numbers was achieved by applying Stereology to SEM or wholemount TEM images (FIG. 3). Quantitative assessment comprised overlaying a lattice on top of an image and counting points falling on fenestrated and on non-fenestrated areas of the plasma membrane. Amounts of fenestrae were routinely expressed as fractions of plasma membrane area that was fenestrated (point counts falling on fenestrae divided by point counts falling on any plasma membrane area). To compare these numbers with measurements in previous in vivo or in vitro studies, the density of individual fenestrae within sieve plates was estimated, which when multiplied by the fraction of plasma membrane coverage equaled the number of fenestrae per μm^2 of plasma membrane.
Coverslips and dishes were coated with 1% gelatin (Sigma) solution in PBS for 30 minutes at room temperature. Endothelial cells were seeded overnight at a density equivalent to 1.5×10^6 cells per 100 mm dish. Cultures were induced with Cytochalasin B (Sigma) at 10 μM for 2 hours, with Latrunculin A (Molecular Probes) at 2.5 μM for 3 hours, or with a combination of recombinant mouse 75 ng/ml VEGF (R&D systems) for 6-72 hours and 10 μM Cytochalasin B for 2 hours. Cells were processed for biochemistry or morphology immediately after the end of the induction.

[1] = system: actin microfilaments of bEND5 cells; assay: Actin microfilament staining with Alexa546-conjugated phalloidin, time-course in bEND5 cells; assay type: cell-based, mouse; details: for earliest dramatic changes in the organization of actin, time of treatment / time until which cortical actin persisted / was dismantled / time within which stress fibers were reduced: 10 μM Cytochalasin B or 2.5 μM Latrunculin A
Protocol: Stress fibers were reduced within the first 20 minutes, whereas cortical actin persisted until about 60 minutes of treatment. At 120 minutes, individual actin bundles were spread around the cytoplasm. (Bar=8 μm)
FIG. 11 show images of bEND5 cells that were treated with 2.5 μM Latrunculin A for different periods of time, and actin microfilaments were stained with Alexa546-conjugated phalloidin. Stress fibers were reduced within the first 20 minutes, while complete disruption occurs at 60-120 minutes. Individual actin foci, small filaments, and actin-rich filopodia were present after 180 minutes of treatment. (Bar=8 μm)
(§2) Microfilaments were disrupted in all cell types upon treatment. (Bar=8 μm)
In parallel to the SEM analysis, bEND5 cells subjected to cytochalasin B and latrunculin A time-courses were stained for the presence of actin microfilaments using phalloidin (FIGS. 10 and 11). Untreated cells contained an extensive network of stress fibers spanning their cytoplasm. Dramatic changes in the organization of actin were however observed as early as after 10 minutes of treatment with either agent. […] At 120 minutes, the disassembled actin was concentrated in aggregates throughout the cytoplasm, while large areas remained actin-deficient. In cells treated with latrunculin A (FIG. 11) the disruption of stress fibers was faster, and the cortical cytoskeleton was dismantled within the first 20 minutes. Overall cells had more and larger actin-depleted areas, and the remainder of actin appeared irregularly arranged in short filaments around the cytoplasm or in structures resembling filopodia.

HUVEC cells = assay: Fenestrae induction in HUVEC cells, wholemount TEM; assay type: cell-based, human; details: 2.5 μM Latrunculin A, 3 hours
Protocol: as §1
(§3) A panel of endothelial cell subtypes was assessed for their fenestrae-forming potentials. Three mouse endothelial lines (bEND5, Py4.1, SVEC) and one human primary endothelial line (HUVEC) were cultured on gelatin-coated grids, treated with latrunculin A for 3 hours, and examined by wholemount TEM (FIG. 8). bEND5 and Py4.1 cells are brain endothelomas and ear/tail endotheliomas respectively, both originating from hemangiomas of Polyoma virus—infected mice. SVECs are lymph node endothelial cells infected with SV40 virus. HUVECs were chosen because of their widespread use and primary cell nature. […]

[2] = system: actin cytoskeleton of HUVEC cells; assay: Actin cytoskeleton staining with phalloidin in HUVEC cells; assay type: cell-based, human; details: 2.5 μM Latrunculin A, 3 hours
Text: as §2
(§4) The actin cytoskeleton of all four cell types was stained with phalloidin to study the differential induction of endothelial cell subtypes by latrunculin A (FIG. 12). […] Observation of bEND5 and Py4.1 cells highlighted a difference in their actin cytoskeleton in the steady state (FIGS. 12A and 12C). Py4.1 cells had greater amounts of cortical actin. This could account for their decreased susceptibility to fenestrae formation compared to bEND5 cells, a discrepancy particularly apparent during induction with cytochalasin B.

[3] = system: actin cytoskeleton of Py4.1 cells; assay: Actin cytoskeleton staining with phalloidin in Py4.1 cells; assay type: cell-based, mouse; details: 2.5 μM Latrunculin A, 3 hours
Text: as §2, §4

[4] = system: actin cytoskeleton of SVEC cells; assay: Actin cytoskeleton staining with phalloidin in SVEC cells; assay type: cell-based, mouse; details: 2.5 μM Latrunculin A, 3 hours
Text: as §2, §4

SVEC cells = assay: Fenestrae induction in SVEC cells, wholemount TEM; assay type: cell-based, mouse; details: 2.5 μM Latrunculin A, 3 hours
Protocol: as §1, §3

actin monomers = details: 1:1 complexes with actin monomers; cited from earlier work
[5] = system: primary liver endothelial cells; details: cited from earlier work
[6] = system: normally non-fenestrated anatomical sites; details: topical application or intradermal injection; cited from earlier work

C=C1[C@@H](C)[C@H]2[C@H](Cc3ccccc3)NC(=O)[C@]23OC(=O)/C=C/[C@H](O)CCC[C@@H](C)C/C=C/[C@H]3[C@@H]1O [cytochalasin B]
response of Py4.1 cells to cytochalasin B (fenestrae formation) (Py4.1 cells): responsive
Kd (actin filaments): 10 to 100 nM
induction of fenestrae compared to the untreated control (bEND5 cells): ~100 fold
maximum number of fenestrae (bEND5 cells): 3.5 fenestrae per μm^2
time of treatment at maximum number of fenestrae (bEND5 cells): 2 h
change in the number of fenestrae at 3 hours of treatment (bEND5 cells; versus the maximum at 2 hours): slight decrease
earliest dramatic changes in the organization of actin, time of treatment [1]: 10 min
time until which cortical actin persisted / was dismantled [1]: about 60 minutes
time within which stress fibers were reduced [1]: ≤ 20 min

C/C1=C/C(=O)O[C@@H]2C[C@@H](CC[C@H](C)/C=C\C=C\CC1)O[C@@](O)([C@@H]1CSC(=O)N1)C2 [latrunculin A]
fenestrae formation (HUVEC cells): only very few
fenestrae formation (HUVEC cells; listed as Latrunculin A): rare fenestrae
fenestrae formation (Py4.1 cells): susceptible to fenestrae formation
fenestrae formation (Py4.1 cells; listed as Latrunculin A): Abundant fenestrae
state of the actin cytoskeleton after treatment [2]: completely disrupted
state of the actin cytoskeleton after treatment [3]: completely disrupted
fenestrae formation (bEND5 cells): susceptible to fenestrae formation
fenestrae formation (bEND5 cells; listed as Latrunculin A): Abundant fenestrae
induction of fenestrae compared to the untreated control (bEND5 cells): ~100 fold
maximum number of fenestrae (bEND5 cells): up to 5.3 fenestrae per μm^2
maximum number of fenestrae (bEND5 cells; listed as Latrunculin A): 5.3 fenestrae per μm^2
potency in inducing fenestrae, comparison of the two agents (bEND5 cells; even when used at lower concentrations): more potent in inducing fenestrae than cytochalasin B
time of treatment at maximum number of fenestrae (bEND5 cells): 3 h
viability of the cells (bEND5 cells; treatments extended over 3 hours): reduced considerably
time of complete disruption of actin microfilaments ([1]; 2.5 μM Latrunculin A): 60 to 120 min
state of the actin cytoskeleton after treatment ([1]; 2.5 μM Latrunculin A, 3 hours): completely disrupted
earliest dramatic changes in the organization of actin, time of treatment [1]: 10 min
time until which cortical actin persisted / was dismantled [1]: ≤ 20 min
time within which stress fibers were reduced [1]: ≤ 20 min
state of the actin cytoskeleton after treatment [4]: completely disrupted
fenestrae formation (SVEC cells): no indication of fenestrae
fenestrae formation (SVEC cells; listed as Latrunculin A): No fenestrae
Kd (actin monomers): ~100 nM

CO[C@H]1C[C@H](CC[C@H](C)[C@H](O)[C@H](C)[C@H]2OC(=O)/C=C/C(C)=C/C[C@H](O)C[C@@H]3C=CC[C@@H](C[C@H](OC)[C@@H](C)[C@@H](O)C[C@@H](O)[C@H](C)[C@@H]([C@@H](C)[C@@H](O)[C@@H](C)CC[C@H]4C[C@H](OC)C[C@H](C)O4)OC(=O)/C=C/C(C)=C/C[C@H](O)C[C@@H]4C=CC[C@@H](C[C@H](OC)[C@@H](C)[C@@H](O)C[C@@H](O)[C@@H]2C)O4)O3)O[C@@H](C)C1 [swinholide A]
induction of fenestrae over untreated control [5]: less than 3 fold
fenestrae levels ([5]; untreated control contained over 3 fenestrae per μm^2): up to 9.1 per μm^2

VEGF
fenestrae induction, cells treated only with VEGF (bEND5 cells; Cytochalasin B omitted from the induction cocktail): minimal induction over background
time within which fenestrations are induced [6]: ≤ 10 min
